For orientation: AC50 means the midpoint of the concentration-response curve, whichever way the signal moves.

SMILES strings stand for the structures. Some results are limits rather than exact numbers.

The record followed here is ChEMBL document CHEMBL5291721, “A preclinical secondary pharmacology resource illuminates target-adverse drug reaction associations of marketed drugs” (Nat Commun, 2023).

In assay [1] the target is T1, 5-hydroxytryptamine receptor 2C (Homo sapiens, UniProt P28335).
T1 sequence (P28335 whole entry): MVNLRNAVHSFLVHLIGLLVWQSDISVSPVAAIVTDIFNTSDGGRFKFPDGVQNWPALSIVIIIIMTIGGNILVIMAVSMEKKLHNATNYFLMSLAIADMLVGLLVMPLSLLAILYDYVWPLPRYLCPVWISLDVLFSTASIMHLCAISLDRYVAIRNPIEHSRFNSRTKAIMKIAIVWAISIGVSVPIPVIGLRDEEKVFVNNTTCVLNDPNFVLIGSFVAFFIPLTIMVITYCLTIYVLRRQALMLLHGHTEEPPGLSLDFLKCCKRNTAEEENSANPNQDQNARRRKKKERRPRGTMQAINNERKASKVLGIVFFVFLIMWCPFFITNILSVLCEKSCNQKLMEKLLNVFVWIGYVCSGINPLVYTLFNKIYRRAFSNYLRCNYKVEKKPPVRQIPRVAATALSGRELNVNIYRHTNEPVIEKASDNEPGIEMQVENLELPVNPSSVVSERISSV

Another assay concerns the target Histamine H2 receptor (Homo sapiens, UniProt P25021). In kind it is functional, cell-based.
Assay [2] has as its target Delta-type opioid receptor (Homo sapiens, UniProt P41143).
The target in assay [3] is Kappa-type opioid receptor (Homo sapiens, UniProt P41145).
Sequence of Kappa-type opioid receptor (P41145 whole entry): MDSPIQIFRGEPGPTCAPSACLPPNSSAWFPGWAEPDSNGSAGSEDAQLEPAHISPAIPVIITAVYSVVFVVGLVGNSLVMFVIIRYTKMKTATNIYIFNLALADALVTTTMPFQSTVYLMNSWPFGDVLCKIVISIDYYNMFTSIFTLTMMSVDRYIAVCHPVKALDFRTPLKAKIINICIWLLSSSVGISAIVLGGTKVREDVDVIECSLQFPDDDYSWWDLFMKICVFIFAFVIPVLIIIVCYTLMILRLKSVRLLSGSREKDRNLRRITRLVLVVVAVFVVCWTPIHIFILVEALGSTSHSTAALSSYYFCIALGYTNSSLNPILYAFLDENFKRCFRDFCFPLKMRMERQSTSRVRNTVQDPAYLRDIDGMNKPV
Assay [4] has as its target T2, 5-hydroxytryptamine receptor 3A (Homo sapiens, UniProt P46098).
T2 sequence (P46098 whole entry): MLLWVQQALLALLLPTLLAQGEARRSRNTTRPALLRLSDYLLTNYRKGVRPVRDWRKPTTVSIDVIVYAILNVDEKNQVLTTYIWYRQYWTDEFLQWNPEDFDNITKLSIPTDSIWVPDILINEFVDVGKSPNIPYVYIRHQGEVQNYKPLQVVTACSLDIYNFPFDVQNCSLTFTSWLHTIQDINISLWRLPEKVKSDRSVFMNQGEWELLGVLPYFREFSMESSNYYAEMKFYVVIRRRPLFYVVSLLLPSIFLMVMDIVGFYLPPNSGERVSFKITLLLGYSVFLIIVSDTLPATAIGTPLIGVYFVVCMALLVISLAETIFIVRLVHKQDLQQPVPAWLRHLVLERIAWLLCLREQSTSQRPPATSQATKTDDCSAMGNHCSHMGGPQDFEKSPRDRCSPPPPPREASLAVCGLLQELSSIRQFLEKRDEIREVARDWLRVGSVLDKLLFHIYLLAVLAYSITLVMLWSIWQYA
It counts as functional.

Another assay deals with T3, Thromboxane A2 receptor (Homo sapiens, UniProt P21731).
T3 sequence (P21731 whole entry): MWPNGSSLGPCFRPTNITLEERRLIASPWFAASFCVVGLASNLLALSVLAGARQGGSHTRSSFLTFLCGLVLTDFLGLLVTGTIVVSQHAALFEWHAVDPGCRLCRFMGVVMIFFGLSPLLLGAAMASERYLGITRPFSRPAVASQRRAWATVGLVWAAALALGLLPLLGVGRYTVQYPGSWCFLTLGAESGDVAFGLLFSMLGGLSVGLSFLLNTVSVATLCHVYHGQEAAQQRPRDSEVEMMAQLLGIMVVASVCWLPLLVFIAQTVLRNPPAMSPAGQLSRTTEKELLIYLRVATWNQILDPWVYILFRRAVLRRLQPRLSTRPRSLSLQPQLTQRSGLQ

In a further assay the target is T4, Progesterone receptor (Homo sapiens, UniProt P06401).
T4 sequence (P06401 whole entry): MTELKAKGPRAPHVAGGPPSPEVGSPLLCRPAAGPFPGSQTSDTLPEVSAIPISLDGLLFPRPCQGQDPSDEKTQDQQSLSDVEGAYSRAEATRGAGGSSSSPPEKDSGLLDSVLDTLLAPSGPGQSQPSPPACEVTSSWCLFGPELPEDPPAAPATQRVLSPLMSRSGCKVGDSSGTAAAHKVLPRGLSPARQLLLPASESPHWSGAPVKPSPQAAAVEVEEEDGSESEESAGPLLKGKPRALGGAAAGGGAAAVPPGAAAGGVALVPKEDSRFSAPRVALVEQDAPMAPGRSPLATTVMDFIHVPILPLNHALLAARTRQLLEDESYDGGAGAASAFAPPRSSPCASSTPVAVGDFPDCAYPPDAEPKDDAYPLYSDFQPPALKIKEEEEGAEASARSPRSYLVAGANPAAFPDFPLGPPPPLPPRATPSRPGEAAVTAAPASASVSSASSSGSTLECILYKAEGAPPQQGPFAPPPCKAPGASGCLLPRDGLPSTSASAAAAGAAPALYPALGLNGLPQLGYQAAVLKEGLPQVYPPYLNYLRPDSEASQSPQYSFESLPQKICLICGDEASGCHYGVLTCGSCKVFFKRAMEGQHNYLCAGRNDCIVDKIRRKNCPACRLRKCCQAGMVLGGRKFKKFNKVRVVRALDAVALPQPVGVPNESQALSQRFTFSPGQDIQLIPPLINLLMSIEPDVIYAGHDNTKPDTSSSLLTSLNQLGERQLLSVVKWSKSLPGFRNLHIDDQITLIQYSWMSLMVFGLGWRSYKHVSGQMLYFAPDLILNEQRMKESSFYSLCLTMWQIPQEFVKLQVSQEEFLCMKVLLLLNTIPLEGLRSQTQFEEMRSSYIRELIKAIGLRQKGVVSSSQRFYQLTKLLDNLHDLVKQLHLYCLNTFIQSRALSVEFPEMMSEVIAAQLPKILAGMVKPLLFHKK
In kind it is functional.

The target of assay [5] is T5, Alpha-2B adrenergic receptor (Homo sapiens, UniProt P18089).
T5 sequence (P18089 whole entry): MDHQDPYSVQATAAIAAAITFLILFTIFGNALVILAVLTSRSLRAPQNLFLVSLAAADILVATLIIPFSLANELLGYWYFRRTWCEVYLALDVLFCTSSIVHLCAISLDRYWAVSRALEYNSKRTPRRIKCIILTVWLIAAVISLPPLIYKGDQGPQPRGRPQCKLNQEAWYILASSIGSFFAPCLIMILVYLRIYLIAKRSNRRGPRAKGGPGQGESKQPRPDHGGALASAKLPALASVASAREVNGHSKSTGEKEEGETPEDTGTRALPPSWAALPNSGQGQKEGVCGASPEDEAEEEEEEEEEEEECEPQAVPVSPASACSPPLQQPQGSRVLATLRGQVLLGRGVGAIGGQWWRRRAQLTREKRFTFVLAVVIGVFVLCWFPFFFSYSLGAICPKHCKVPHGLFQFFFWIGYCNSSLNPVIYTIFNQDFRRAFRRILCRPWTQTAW
Note: assay procedure not described here.

Sequence of Delta-type opioid receptor (P41143 whole entry): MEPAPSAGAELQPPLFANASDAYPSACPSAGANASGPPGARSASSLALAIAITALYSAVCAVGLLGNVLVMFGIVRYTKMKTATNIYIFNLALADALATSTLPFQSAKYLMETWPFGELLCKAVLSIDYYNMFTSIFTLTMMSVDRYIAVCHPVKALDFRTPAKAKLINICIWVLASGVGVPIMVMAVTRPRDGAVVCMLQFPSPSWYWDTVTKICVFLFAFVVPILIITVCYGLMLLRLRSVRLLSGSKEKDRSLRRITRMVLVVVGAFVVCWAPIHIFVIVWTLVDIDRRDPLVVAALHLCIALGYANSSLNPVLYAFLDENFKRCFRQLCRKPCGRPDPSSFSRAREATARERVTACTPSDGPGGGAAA
Sequence of Histamine H2 receptor (P25021 whole entry): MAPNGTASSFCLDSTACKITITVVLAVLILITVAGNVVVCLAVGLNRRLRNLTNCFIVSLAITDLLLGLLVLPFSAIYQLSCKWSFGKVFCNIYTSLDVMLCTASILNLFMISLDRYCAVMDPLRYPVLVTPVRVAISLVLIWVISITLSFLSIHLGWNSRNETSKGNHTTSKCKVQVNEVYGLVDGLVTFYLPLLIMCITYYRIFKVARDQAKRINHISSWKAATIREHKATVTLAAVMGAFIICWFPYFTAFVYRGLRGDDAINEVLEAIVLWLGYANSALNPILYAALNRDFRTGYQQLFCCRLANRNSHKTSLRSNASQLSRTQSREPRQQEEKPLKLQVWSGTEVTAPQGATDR

As to `NC(=O)CN1CCCC1=O`, the AC50 (in assay [1]; on Histamine H2 receptor; in assay [2]; in assay [3]; in assay [4]; at Thromboxane A2 receptor) was greater than 30 µM each time. In addition, the AC50 on Progesterone receptor is greater than 30 µM.

Turning to `Cn1c(=O)cc(N2CCC[C@@H](N)C2)n(Cc2ccccc2C#N)c1=O` [ALOGLIPTIN], the AC50 in assay [1] was greater than 30 µM; in assay [2], greater than 10 µM; in assay [3] it was 8.32 µM; in assay [5], greater than 10 µM; in assay [4] it was greater than 10 µM; on Thromboxane A2 receptor it was greater than 30 µM.

On to `CCN1CCCC1CNC(=O)c1cc(S(=O)(=O)CC)c(N)cc1OC` (centres undefined) [AMISULPRIDE], for which the AC50 in assay [1] was greater than 30 µM; on Histamine H2 receptor, greater than 30 µM; in assay [2], greater than 30 µM; in assay [3], greater than 30 µM; in assay [5], 1.5 µM; in assay [4], greater than 30 µM. Also, at Progesterone receptor, the AC50 is greater than 30 µM.

Take `O=C(O)CCNC(=O)c1ccccc1` [BETAMIPRON]: the AC50 (in assay [1]; on Histamine H2 receptor; in assay [2]; in assay [3]; in assay [4]; at Thromboxane A2 receptor) was greater than 30 µM each time. Also, the half-maximal activity concentration (AC50) on Progesterone receptor was greater than 30 µM.

With `Oc1ccc2c(c1)[C@@]13CCCC[C@@]1(O)[C@@H](C2)N(CC1CCC1)CC3` [BUTORPHANOL], the AC50 is greater than 30 µM in assay [1]; greater than 30 µM at Histamine H2 receptor; 0.18 µM in assay [2]; 0.025 µM in assay [3]; greater than 30 µM in assay [5]; greater than 30 µM in assay [4]. Moreover, the AC50 on Progesterone receptor was greater than 30 µM.

As for `C=C[C@@]1(C)CC(=O)[C@]2(O)[C@@]3(C)[C@@H](O)CCC(C)(C)[C@@H]3[C@H](O)[C@H](OC(C)=O)[C@@]2(C)O1` [COLFORSIN], the AC50 (in assay [1]; in assay [2]; in assay [3]; in assay [5]; in assay [4]; on Thromboxane A2 receptor) was greater than 30 µM each time. On Progesterone receptor, this compound gave an AC50 greater than 30 µM.

Compound `COc1cc2ncnc(Nc3ccc(F)c(Cl)c3)c2cc1NC(=O)/C=C/CN1CCCCC1` [DACOMITINIB ANHYDROUS] returned an AC50 at Progesterone receptor greater than 30 µM.

For `CC(=O)OCC(=O)[C@@]1(O)[C@H](C)C[C@H]2[C@@H]3CCC4=CC(=O)C=C[C@]4(C)[C@@]3(F)[C@@H](O)C[C@@]21C` [DEXAMETHASONE ACETATE], the AC50 is greater than 30 µM in assay [1]; greater than 10 µM on Histamine H2 receptor; greater than 30 µM in assay [2]; greater than 10 µM in assay [3]; greater than 10 µM in assay [5]; greater than 30 µM in assay [4]. On Thromboxane A2 receptor, the half-maximal activity concentration (AC50) turned out to be 16 µM.

Regarding `CCN(CC)CCN1C(=O)CN=C(c2ccccc2F)c2cc(Cl)ccc21` [FLURAZEPAM], the AC50 was greater than 30 µM in assay [1]; greater than 30 µM on Histamine H2 receptor; greater than 30 µM in assay [2]; 0.21 µM in assay [3]; greater than 10 µM in assay [5]; 20 µM in assay [4]. Also, the AC50 on Thromboxane A2 receptor was greater than 30 µM.

`CC(=O)[C@]1(O)Cc2c(O)c3c(c(O)c2[C@@H](O[C@H]2C[C@H](N)[C@H](O)[C@H](C)O2)C1)C(=O)c1ccccc1C3=O` [IDARUBICIN]: the AC50 was 9.3 µM in assay [1]; greater than 30 µM on Histamine H2 receptor; 19 µM in assay [2]; 13 µM in assay [4]; greater than 30 µM at Thromboxane A2 receptor; 5.8 µM at Progesterone receptor.

For the compound `Nc1cc(-c2ccncc2)c[nH]c1=O` [INAMRINONE], the AC50 is greater than 30 µM in assay [1]; greater than 10 µM on Histamine H2 receptor; greater than 30 µM in assay [2]; greater than 10 µM in assay [3]; greater than 30 µM in assay [4]; greater than 30 µM on Thromboxane A2 receptor.

Consider `Cc1ncc2n1-c1ccc(Cl)cc1C(c1ccccc1F)=NC2` [MIDAZOLAM], for which the AC50 in assay [1] was greater than 30 µM; on Histamine H2 receptor, greater than 30 µM; in assay [2] it was greater than 30 µM; in assay [5], greater than 10 µM; in assay [4], greater than 30 µM; at Thromboxane A2 receptor, greater than 30 µM.

For `O=C1CN=C(c2ccccc2)c2cc([N+](=O)[O-])ccc2N1` [NITRAZEPAM], the AC50 in assay [1] was greater than 30 µM; on Histamine H2 receptor it was greater than 30 µM; in assay [2], greater than 30 µM; in assay [3], greater than 10 µM; in assay [4] it was greater than 30 µM; on Thromboxane A2 receptor it was greater than 10 µM. In addition, the AC50 at Progesterone receptor is greater than 10 µM.

In the case of `CN(C(=O)c1c(O)c2ccccc2n(C)c1=O)c1ccccc1` [ROQUINIMEX], the AC50 on Progesterone receptor is greater than 30 µM.

`Cn1cnc2c(F)c(Nc3ccc(Br)cc3Cl)c(C(=O)NOCCO)cc21` [SELUMETINIB]: the AC50 at Thromboxane A2 receptor is greater than 30 µM.

`CC1=C(C)C(=O)C(C(CCCCCC(=O)O)c2ccccc2)=C(C)C1=O` (centres undefined) [SERATRODAST]: the half-maximal activity concentration (AC50) (in assay [1]; at Histamine H2 receptor; in assay [2]; in assay [3]; in assay [5]; in assay [4]) was greater than 30 µM throughout. The compound also gave an AC50 at Progesterone receptor greater than 30 µM.

As to `CCN(CC)CCNC(=O)c1cc(S(C)(=O)=O)ccc1OC` [TIAPRIDE], the AC50 (in assay [1]; at Histamine H2 receptor; in assay [2]; in assay [3]; in assay [4]; on Thromboxane A2 receptor) was greater than 30 µM in each case. For the same compound, the half-maximal activity concentration (AC50) on Progesterone receptor is greater than 30 µM.

Take `NC1CCN(c2nc3c(cc2F)c(=O)c(C(=O)O)cn3-c2ccc(F)cc2F)C1` (centres undefined) [TOSUFLOXACIN]: the AC50 (in assay [1]; on Histamine H2 receptor; in assay [2]; in assay [3]; in assay [4]; on Thromboxane A2 receptor) was greater than 30 µM each time. This compound gave a concentration at half-maximal activity (AC50) at Progesterone receptor greater than 30 µM.
